SMILES strings stand for the structures. pEC50, pIC50: −log10 of the molar value.

Assay [1] deals with Human immunodeficiency virus type 1 protease (Human immunodeficiency virus 1) (UniProt Q72874). Description: Compound was tested for its inhibitory potency against HIV protease at 0.5 nM.
In assay [2] the test system is MT4. In words: Antiviral activity against the cytopathic effects of HIV IIIB in MT-4 cells was assayed in the presence of 50% human serum. In kind it is functional, cell-based. A general note: Damage to the host cells serves as the signal in cytopathic effect assays.
In assay [3] the test system is MT4. In words: Cytotoxicity against MT-4 cells. In kind it is functional, cell-based. The conditions noted are these: Homo sapiens.

The inhibition is the change of the read-out against control, counted positive when it falls. Low readings indicate a weak effect, high ones a strong effect. In general, pEC50 refers to the EC50 on a negative log10 scale, so that one unit is a factor of ten. By pIC50 is commonly meant the IC50 on a negative log10 scale, so that one unit is a factor of ten. Consider `Cc1cccc(C)c1OCC(=O)N[C@@H](Cc1ccccc1)[C@@H](O)C[C@H](Cc1ccccc1)NC(=O)[C@H](C(C)C)N1CCCNC1=O` [LOPINAVIR], for which, in assay [1], the inhibition is 93%. The pEC50 in assay [2] was 7.00. In assay [3], this compound gave a pIC50 of 4.75.
`Cc1cccc(C)c1OCC(=O)N[C@@H](Cc1ccccc1)[C@@H](O)C[C@H](CC(C)C)NC(=O)[C@H](C(C)C)N1CCCNC1=O` gave an inhibition in assay [1] of 64%. In addition, in assay [2], the negative-log EC50 (pEC50) was 6.49. The same compound had a pIC50 in assay [3] of 4.46.
In turn, `CCCC[C@@H](C[C@H](O)[C@H](Cc1ccccc1)NC(=O)COc1c(C)cccc1C)NC(=O)[C@H](C(C)C)N1CCCNC1=O` yielded an inhibition in assay [1] of 87%. Besides, the pEC50 in assay [2] was 6.04. The pIC50 in assay [3] is 4.48.
For `Cc1cccc(C)c1OCC(=O)N[C@@H](Cc1ccccc1)[C@@H](O)C[C@@H](NC(=O)[C@H](C(C)C)N1CCCNC1=O)C(C)C` the same measures were 93%, 6.59 and 4.25.
`Cc1cccc(C)c1OCC(=O)N[C@@H](Cc1ccccc1)[C@@H](O)C[C@H](CCC(C)C)NC(=O)[C@H](C(C)C)N1CCCNC1=O` yielded an inhibition in assay [1] of 97%. For the same compound, the pEC50 in assay [2] was 6.47. The pIC50 in assay [3] was 4.73.
For `CCC(CC)C[C@@H](C[C@H](O)[C@H](Cc1ccccc1)NC(=O)COc1c(C)cccc1C)NC(=O)[C@H](C(C)C)N1CCCNC1=O` the same measures were 87%, 5.55 and 4.75.

The values above are taken from ChEMBL document CHEMBL1134935, “Novel lopinavir analogues incorporating non-Aromatic P-1 side chains--synthesis and structure--activity relationships” (Bioorg Med Chem Lett, 2002).
